Laboratory results reported in PubChem BioAssay (NCI).
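Following 48 hours of exposure in 96-well plates, responses at five concentrations were used to interpolate endpoints linearly. The concentration for 50% growth inhibition is given as GI50. The concentration for full growth arrest is given as TGI.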

Assays:
Experiment in all cases: DTP human tumour cell line panel, 48 h
[1] = test system: 786-0 renal
[2] = test system: A498 renal
[3] = test system: A549 NSCLC
[4] = test system: ACHN renal
[5] = test system: CAKI-1 renal
[6] = test system: COLO 205 colon
[7] = test system: DLD-1 colon
[8] = test system: DMS 114 small cell lung
[9] = test system: DMS 273 small cell lung
[10] = test system: EKVX NSCLC
[11] = test system: HCC-2998 colon
[12] = test system: HCT-116 colon
[13] = test system: HCT-15 colon
[14] = test system: HL-60(TB) leukemia
[15] = test system: HOP-18 NSCLC
[16] = test system: HOP-62 NSCLC
[17] = test system: HOP-92 NSCLC
[18] = test system: HT29 colon
[19] = test system: IGROV1 ovarian
[20] = test system: KM12 colon
[21] = test system: KM20L2 colon
[22] = test system: LXFL 529 NSCLC
[23] = test system: M14 melanoma
[24] = test system: M19-MEL melanoma
[25] = test system: MALME-3M melanoma
[26] = test system: NCI-H226 lung
[27] = test system: NCI-H23 lung
[28] = test system: NCI-H460 lung
[29] = test system: OVCAR-3 ovarian
[30] = test system: OVCAR-4 ovarian
[31] = test system: OVCAR-5 ovarian
[32] = test system: OVCAR-8 ovarian
[33] = test system: RPMI-8226 leukemia
[34] = test system: RXF 393 renal
[35] = test system: SF-268 CNS
[36] = test system: SF-295 CNS
[37] = test system: SF-539 CNS
[38] = test system: SK-MEL-2 melanoma
[39] = test system: SK-MEL-28 melanoma
[40] = test system: SK-OV-3 ovarian
[41] = test system: SN12C renal
[42] = test system: SNB-19 CNS
[43] = test system: SNB-75 CNS
[44] = test system: SNB-78 CNS
[45] = test system: SW-620 colon
[46] = test system: U251 CNS
[47] = test system: UACC-257 melanoma
[48] = test system: UACC-62 melanoma
[49] = test system: UO-31 renal
[50] = test system: BT-549 breast
[51] = test system: CCRF-CEM leukemia
[52] = test system: DU-145 prostate
[53] = test system: HS 578T breast
[54] = test system: K-562 leukemia
[55] = test system: LOX IMVI melanoma
[56] = test system: MCF7 breast
[57] = test system: MDA-MB-231 breast
[58] = test system: MDA-MB-435
[59] = test system: MOLT-4 leukemia
[60] = test system: NCI/ADR-RES ovarian
[61] = test system: PC-3 prostate
[62] = test system: SK-MEL-5 melanoma
[63] = test system: SR leukemia
[64] = test system: T-47D breast
[65] = test system: TK-10 renal
[66] = test system: XF 498 CNS

Q: What does the source list for `CCC[CH2][Sn]1([CH2]CCC)[O]CC(COc2c(Cl)cc(Cl)cc2Cl)[O]1` (centres undefined)?
A: GI50 [1]: 1410 nM; TGI [1]: 2740 nM; GI50 [2]: 1310 nM; TGI [2]: 2650 nM; GI50 [3]: 5150 nM; TGI [3]: 17700 nM; GI50 [4]: 1770 nM; TGI [4]: 3170 nM; GI50 [5]: 511 nM; TGI [5]: 1650 nM; GI50 [6]: 1390 nM; TGI [6]: 2750 nM; GI50 [7]: 1490 nM; TGI [7]: 2950 nM; GI50 [8]: 403 nM; TGI [8]: 1580 nM; GI50 [9]: 1780 nM; TGI [9]: 3440 nM; GI50 [10]: 5510 nM; TGI [10]: 17300 nM; GI50 [11]: 1510 nM; TGI [11]: 2950 nM; GI50 [12]: 1670 nM; TGI [12]: 3030 nM; GI50 [13]: 1660 nM; TGI [13]: 3310 nM; TGI [14]: 673 nM; GI50 [15]: 1410 nM; TGI [15]: 2710 nM; GI50 [16]: 2630 nM; TGI [16]: 7970 nM; GI50 [17]: 1550 nM; TGI [17]: 3060 nM; GI50 [18]: 2090 nM; TGI [18]: 4190 nM; GI50 [19]: 1800 nM; TGI [19]: 3460 nM; GI50 [20]: 1800 nM; TGI [20]: 3540 nM; GI50 [21]: 2980 nM; TGI [21]: 10700 nM; GI50 [22]: 375 nM; TGI [22]: 1580 nM; GI50 [23]: 1720 nM; TGI [23]: 3130 nM; GI50 [24]: 941 nM; TGI [24]: 2220 nM; GI50 [25]: 1060 nM; TGI [25]: 2340 nM; GI50 [26]: 1820 nM; TGI [26]: 3820 nM; GI50 [27]: 1110 nM; TGI [27]: 2690 nM; GI50 [28]: 2670 nM; TGI [28]: 7980 nM; GI50 [29]: 1650 nM; TGI [29]: 3030 nM; GI50 [30]: 1910 nM; TGI [30]: 3760 nM; GI50 [31]: 2020 nM; TGI [31]: 3460 nM; GI50 [32]: 1120 nM; TGI [32]: 2370 nM; GI50 [33]: 780 nM; TGI [33]: 3720 nM; GI50 [34]: 1270 nM; TGI [34]: 2730 nM; GI50 [35]: 1150 nM; TGI [35]: 2680 nM; GI50 [36]: 1900 nM; TGI [36]: 3370 nM; GI50 [37]: 1640 nM; TGI [37]: 3430 nM; GI50 [38]: 580 nM; TGI [38]: 1910 nM; GI50 [39]: 1390 nM; TGI [39]: 2820 nM; GI50 [40]: 4180 nM; TGI [40]: 12300 nM; GI50 [41]: 1750 nM; TGI [41]: 3270 nM; GI50 [42]: 1350 nM; TGI [42]: 2640 nM; GI50 [43]: 1170 nM; TGI [43]: 3770 nM; GI50 [44]: 962 nM; TGI [44]: 3490 nM; GI50 [45]: 1130 nM; TGI [45]: 2620 nM; GI50 [46]: 845 nM; TGI [46]: 2180 nM; GI50 [47]: 1110 nM; TGI [47]: 2330 nM; GI50 [48]: 1480 nM; TGI [48]: 2860 nM; GI50 [49]: 1680 nM; TGI [49]: 3210 nM

Q: For `CC(=O)O[C@@]12CO[C@@H]1CC(O)[C@@]1(C)C(=O)[C@H](O)C3=C(C)C(O)C[C@@](O)(C(OC(=O)c4ccccc4)C12)C3(C)C` (some centres undefined), which TGI [1] is on record?
A: > 100000 nM

Q: What about the TGI [2] of the same molecule?
A: > 100000 nM

Q: And the TGI [3]?
A: > 100000 nM

Q: What about the TGI [4] of the same molecule?
A: > 100000 nM

Q: What about the TGI [50] of the same molecule?
A: > 100000 nM

Q: And the TGI [5]?
A: > 100000 nM

Q: What about the TGI [51] of the same molecule?
A: > 100000 nM

Q: And the TGI [6]?
A: 6720 nM

Q: And the TGI [52]?
A: > 100000 nM

Q: And the TGI [10]?
A: > 100000 nM

Q: And the TGI [11]?
A: 21600 nM

Q: And the TGI [12]?
A: 19200 nM

Q: And the TGI [13]?
A: > 100000 nM

Q: And the TGI [14]?
A: > 100000 nM

Q: What about the TGI [16] of the same molecule?
A: > 100000 nM

Q: What about the TGI [17] of the same molecule?
A: > 100000 nM

Q: And the TGI [53]?
A: 1180 nM

Q: And the TGI [18]?
A: 23800 nM

Q: What about the TGI [19] of the same molecule?
A: > 100000 nM

Q: What about the TGI [54] of the same molecule?
A: > 100000 nM

Q: What about the TGI [20] of the same molecule?
A: > 89200 nM

Q: What about the TGI [21] of the same molecule?
A: 3310 nM

Q: And the TGI [55]?
A: > 100000 nM

Q: What about the TGI [23] of the same molecule?
A: > 48500 nM

Q: What about the TGI [24] of the same molecule?
A: > 100000 nM

Q: What about the TGI [25] of the same molecule?
A: > 100000 nM

Q: And the TGI [56]?
A: > 100000 nM

Q: What about the TGI [57] of the same molecule?
A: 66000 nM

Q: What about the TGI [58] of the same molecule?
A: 413 nM

Q: And the TGI [59]?
A: > 31600 nM

Q: What about the TGI [26] of the same molecule?
A: > 100000 nM

Q: What about the TGI [27] of the same molecule?
A: > 41900 nM

Q: And the TGI [28]?
A: > 100000 nM

Q: And the TGI [60]?
A: > 100000 nM

Q: And the TGI [30]?
A: > 100000 nM

Q: What about the TGI [31] of the same molecule?
A: > 29100 nM

Q: What about the TGI [32] of the same molecule?
A: > 74900 nM

Q: And the TGI [61]?
A: > 100000 nM

Q: What about the TGI [33] of the same molecule?
A: > 100000 nM

Q: And the TGI [34]?
A: > 100000 nM

Q: What about the TGI [35] of the same molecule?
A: > 100000 nM

Q: And the TGI [36]?
A: > 51100 nM

Q: What about the TGI [37] of the same molecule?
A: 2160 nM

Q: What about the TGI [62] of the same molecule?
A: > 100000 nM

Q: And the TGI [41]?
A: > 100000 nM

Q: What about the TGI [42] of the same molecule?
A: > 100000 nM

Q: What about the TGI [43] of the same molecule?
A: 5700 nM

Q: And the TGI [44]?
A: > 100000 nM

Q: What about the TGI [63] of the same molecule?
A: > 100000 nM

Q: What about the TGI [45] of the same molecule?
A: > 100000 nM

Q: And the TGI [64]?
A: > 100000 nM

Q: What about the TGI [65] of the same molecule?
A: > 100000 nM

Q: What about the TGI [46] of the same molecule?
A: 18100 nM

Q: And the TGI [47]?
A: > 26800 nM

Q: And the TGI [48]?
A: 3700 nM

Q: And the TGI [49]?
A: > 100000 nM

Q: What about the TGI [66] of the same molecule?
A: > 100000 nM
